This note sets out measurements from patent US6642251B1, “Geometrically restricted 2-indolinone derivatives as modulators of protein kinase activity” (Sugen, Inc., priority 1998, dated 2003).

Structures are written as SMILES. Where two headings read alike, the source gives them in different places. A value given as a limit tells only on which side of the number the result lay.

For assay [1], the target named is T1, IGF-1 receptor (Homo sapiens, UniProt P08069).
T1 construct: expressed in transfected cells; host or cells: NIH3T3/IGF-1R
T1 sequence (P08069 31-1367): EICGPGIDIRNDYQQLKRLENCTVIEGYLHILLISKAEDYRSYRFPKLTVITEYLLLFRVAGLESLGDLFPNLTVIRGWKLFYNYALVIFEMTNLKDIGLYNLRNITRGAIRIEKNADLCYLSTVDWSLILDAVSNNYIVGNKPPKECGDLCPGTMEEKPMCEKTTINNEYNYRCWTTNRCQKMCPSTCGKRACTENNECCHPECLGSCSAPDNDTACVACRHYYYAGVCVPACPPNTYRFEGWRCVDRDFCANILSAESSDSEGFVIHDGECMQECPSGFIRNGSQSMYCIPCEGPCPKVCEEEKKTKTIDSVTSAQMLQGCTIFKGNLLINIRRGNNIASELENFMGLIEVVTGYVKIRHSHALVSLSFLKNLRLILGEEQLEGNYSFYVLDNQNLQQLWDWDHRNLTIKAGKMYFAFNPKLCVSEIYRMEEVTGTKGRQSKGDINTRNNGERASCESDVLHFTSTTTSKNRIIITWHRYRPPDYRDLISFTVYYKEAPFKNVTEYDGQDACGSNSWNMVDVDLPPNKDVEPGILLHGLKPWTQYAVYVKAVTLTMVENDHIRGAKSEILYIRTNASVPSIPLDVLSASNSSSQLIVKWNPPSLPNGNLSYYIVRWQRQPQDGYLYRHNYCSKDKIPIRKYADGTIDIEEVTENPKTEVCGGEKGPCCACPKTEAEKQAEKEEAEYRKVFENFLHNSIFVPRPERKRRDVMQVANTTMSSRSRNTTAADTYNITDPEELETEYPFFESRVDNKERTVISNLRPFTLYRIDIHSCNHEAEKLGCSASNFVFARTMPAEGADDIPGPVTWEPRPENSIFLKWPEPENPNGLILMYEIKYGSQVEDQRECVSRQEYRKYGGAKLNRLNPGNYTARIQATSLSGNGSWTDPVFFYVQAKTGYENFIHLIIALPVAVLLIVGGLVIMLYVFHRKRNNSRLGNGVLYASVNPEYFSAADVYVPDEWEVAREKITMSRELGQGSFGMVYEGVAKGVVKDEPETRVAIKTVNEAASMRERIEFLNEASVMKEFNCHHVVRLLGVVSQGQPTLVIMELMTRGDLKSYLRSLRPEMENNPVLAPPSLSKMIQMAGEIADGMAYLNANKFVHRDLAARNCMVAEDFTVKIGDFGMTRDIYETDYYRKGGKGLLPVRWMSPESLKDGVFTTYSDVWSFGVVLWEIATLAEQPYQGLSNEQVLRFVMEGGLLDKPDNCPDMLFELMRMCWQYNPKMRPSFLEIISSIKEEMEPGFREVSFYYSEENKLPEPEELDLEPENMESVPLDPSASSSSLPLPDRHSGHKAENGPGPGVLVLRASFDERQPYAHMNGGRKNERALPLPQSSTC
Kind of assay: Cellular IGF-1 receptor assay (cell IGF). For cell IGF, outcome of primary assay: key: DNH = did not hit in primary assay. Type of assay: cell-based. The conditions noted are these: for IC50: 50% inhibition of target PTK activity. The method, then: The following protocol may be used to measure phosphotyrosine level on IGF-1 receptor, which indicates IGF-1 receptor tyrosine kinase activity.
a. The cell line used in this assay is 3T3/IGF-1R, a cell line genetically engineered to overexpresses IGF-1 receptor.
2. […] Incubate for 1 day then replace medium to serum-free medium (90/μl) and incubate in 5% CO2 and 37° C. overnight.
2. Remove the coating solution, and replace with 100 μl Blocking Buffer, and shake for 30 minutes. Remove the blocking buffer and wash the plate just before adding lysate.
1. The drugs are tested under serum-free condition.
2. Dilute drug stock (in 100% DMSO) 1:10 with DMEM in 96-well poly-propylene plate, and transfer 10 μl/well of this solution to the cells to achieve final drug dilution 1:100, and final DMSO concentration of 1.0%. Incubate the cells in 5% CO2 at 37° C. for 2 hours.
3. Prepare fresh cell lysis buffer (HNTG*)
4. After drug incubation for two hours, transfer 10 μl/well of 200 nM IGF-1 Ligand in PBS to the cells (Final Conc. is 20 nM), and incubate at 5% CO2 at 37° C. for 10 minutes.
5. Remove media and add 100 μl/well HNTG* and shake for 10 minutes. Look at cells under microscope to see if they are adequately lysed.
6. Use a 12-channel pipette to scrape the cells from the plate, and homogenize the lysate by repeated aspiration and dispensing. Transfer all the lysate to the antibody coated ELISA plate, and shake for 1 hour.
7. Remove the lysate, wash the plate, transfer anti-pTyr (1:3,000 with TBST) 100 μl/well, and shake for 30 minutes.
8. Remove anti-pTyr, wash the plate, transfer TAGO (1:3,000 with TBST) 100 μl/well, and shake for 30 minutes.
9. Remove detection antibody, wash the plate, and transfer fresh ABTS/H2O2 (1.2 μl H2O2 to 10 ml ABTS) 100 μl/well to the plate to start color development.
10. Measure OD at 410 nm with a reference wavelength of 630 nm in Dynatec MR5000.

The target of assay [2] is Pyk2 (Homo sapiens, UniProt Q14289). Kind of assay: Pyk2 assay. For Pyk2, outcome of primary assay: key: DNH = did not hit in primary assay. The class given is biochemical.
Chain of Pyk2 (Q14289 whole entry, species assumed): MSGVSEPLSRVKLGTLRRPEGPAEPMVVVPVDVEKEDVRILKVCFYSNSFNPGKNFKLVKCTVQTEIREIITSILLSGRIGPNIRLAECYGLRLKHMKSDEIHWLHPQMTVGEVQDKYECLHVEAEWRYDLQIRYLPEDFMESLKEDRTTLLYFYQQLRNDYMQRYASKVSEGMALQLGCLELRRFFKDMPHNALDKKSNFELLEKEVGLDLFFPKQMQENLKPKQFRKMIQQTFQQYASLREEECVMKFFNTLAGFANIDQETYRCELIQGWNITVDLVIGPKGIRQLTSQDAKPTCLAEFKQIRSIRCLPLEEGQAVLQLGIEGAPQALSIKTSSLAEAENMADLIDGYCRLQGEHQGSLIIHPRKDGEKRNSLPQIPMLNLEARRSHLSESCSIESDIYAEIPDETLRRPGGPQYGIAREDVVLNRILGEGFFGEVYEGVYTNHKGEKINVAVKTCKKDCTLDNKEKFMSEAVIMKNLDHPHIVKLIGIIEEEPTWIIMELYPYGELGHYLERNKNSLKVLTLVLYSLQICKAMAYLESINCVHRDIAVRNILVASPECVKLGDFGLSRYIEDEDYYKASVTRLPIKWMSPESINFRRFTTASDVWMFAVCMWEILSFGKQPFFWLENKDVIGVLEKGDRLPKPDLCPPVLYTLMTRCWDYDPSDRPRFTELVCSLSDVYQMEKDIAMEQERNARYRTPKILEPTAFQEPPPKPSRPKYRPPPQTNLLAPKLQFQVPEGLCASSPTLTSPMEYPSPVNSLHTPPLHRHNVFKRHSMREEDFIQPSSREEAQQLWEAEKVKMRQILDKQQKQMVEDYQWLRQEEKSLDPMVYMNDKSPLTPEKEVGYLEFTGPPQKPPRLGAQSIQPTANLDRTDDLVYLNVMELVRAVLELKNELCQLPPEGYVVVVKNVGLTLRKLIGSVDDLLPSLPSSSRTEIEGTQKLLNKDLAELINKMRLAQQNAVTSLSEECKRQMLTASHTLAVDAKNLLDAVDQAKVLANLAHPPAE
Assay [3] concerns the target T2, src protein kinase (Gallus gallus, UniProt P00523).
T2 construct: made in house; host or cells: Schizosaccharomyces pombe strain SP200
Kind of assay: Biochemical src assay (bio SRC). For bio SRC, outcome of primary assay: key: DNH = did not hit in primary assay. The note with it: for IC50: 50% inhibition of target PTK activity. The method, then: This assay is used to determine src protein kinase activity measuring phosphorylation of a biotinylated peptide as the readout.
a. Yeast transformed with src (Sugen, Inc., Redwood City, Calif.).
1. Coat ELISA plate with 0.5 μg/well anti-src mab in 100 μl of pH 9.6 sodium carbonate buffer; hold at 4° C. overnight.
2. Wash wells once with PBS.
3. Block plate with 0.15 ml 5% milk in PBS for 30 min. at room temperature.
4. Wash plate 5× with PBS.
5. Add 10 μg/well of src transformed yeast lysates diluted in Lysis Buffer (0.1 ml total volume per well). (Amount of lysate may vary between batches.) Shake plate for 20 minutes at room temperature.
1. 4G10 plate: coat 0.5 μg/well 4G10 in 100 μl PBS overnight at 4° C. and block with 150 μl of 5% milk in PBS for 30 minutes at room temperature.
1. Remove unbound proteins.from plates and wash plates 5× with PBS.
2. Add 0.08 ml Kinase Reaction Mixture per well (containing 10 μl of 10×-Kinase Buffer and 10 μM (final concentration) biotin-EEEYEEYEEEYEEEYEEEY per well diluted in water.
3. Add 10 μl of compound diluted in water containing 10% DMSO and pre-incubate for 15 minutes at room temperature.
4. Start kinase reaction by adding 10 μl/well of 0.05 mM ATP in water (5 μM ATP final).
5. Shake ELISA plate for 15 min. at room temperature.
6. Stop kinase reaction by adding 10 μl of 0.5 M EDTA per well.
7. Transfer 90 μl supernatant to a blocked 4G10 coated ELISA plate.
8. Incubate for 30 min. while shaking at room temperature.
9. Wash plate 5× with TBST.
10. Incubate with Vectastain ELITE ABC reagent (100 μl/well) for 30 min. at room temperature.
11. Wash the wells 5× with TBST.
12. Develop with Turbo TMB.

Assay [4] deals with EGFR (Homo sapiens, UniProt P00533). Kind of assay: Biochemical EGFR assay (bio EGFR), ELISA. On the set-up: A431 cell lysate (Screening Lab, SUGEN, Inc.); endogenous in cells; host or cells: A431. The note with it: 50% inhibition of target PTK activity; read-out: bio EGFR (Page 5) IC50. The method, then: This assay measures the in vitro kinase activity of EGFR using ELISA.
Chain of EGFR (P00533 25-1210): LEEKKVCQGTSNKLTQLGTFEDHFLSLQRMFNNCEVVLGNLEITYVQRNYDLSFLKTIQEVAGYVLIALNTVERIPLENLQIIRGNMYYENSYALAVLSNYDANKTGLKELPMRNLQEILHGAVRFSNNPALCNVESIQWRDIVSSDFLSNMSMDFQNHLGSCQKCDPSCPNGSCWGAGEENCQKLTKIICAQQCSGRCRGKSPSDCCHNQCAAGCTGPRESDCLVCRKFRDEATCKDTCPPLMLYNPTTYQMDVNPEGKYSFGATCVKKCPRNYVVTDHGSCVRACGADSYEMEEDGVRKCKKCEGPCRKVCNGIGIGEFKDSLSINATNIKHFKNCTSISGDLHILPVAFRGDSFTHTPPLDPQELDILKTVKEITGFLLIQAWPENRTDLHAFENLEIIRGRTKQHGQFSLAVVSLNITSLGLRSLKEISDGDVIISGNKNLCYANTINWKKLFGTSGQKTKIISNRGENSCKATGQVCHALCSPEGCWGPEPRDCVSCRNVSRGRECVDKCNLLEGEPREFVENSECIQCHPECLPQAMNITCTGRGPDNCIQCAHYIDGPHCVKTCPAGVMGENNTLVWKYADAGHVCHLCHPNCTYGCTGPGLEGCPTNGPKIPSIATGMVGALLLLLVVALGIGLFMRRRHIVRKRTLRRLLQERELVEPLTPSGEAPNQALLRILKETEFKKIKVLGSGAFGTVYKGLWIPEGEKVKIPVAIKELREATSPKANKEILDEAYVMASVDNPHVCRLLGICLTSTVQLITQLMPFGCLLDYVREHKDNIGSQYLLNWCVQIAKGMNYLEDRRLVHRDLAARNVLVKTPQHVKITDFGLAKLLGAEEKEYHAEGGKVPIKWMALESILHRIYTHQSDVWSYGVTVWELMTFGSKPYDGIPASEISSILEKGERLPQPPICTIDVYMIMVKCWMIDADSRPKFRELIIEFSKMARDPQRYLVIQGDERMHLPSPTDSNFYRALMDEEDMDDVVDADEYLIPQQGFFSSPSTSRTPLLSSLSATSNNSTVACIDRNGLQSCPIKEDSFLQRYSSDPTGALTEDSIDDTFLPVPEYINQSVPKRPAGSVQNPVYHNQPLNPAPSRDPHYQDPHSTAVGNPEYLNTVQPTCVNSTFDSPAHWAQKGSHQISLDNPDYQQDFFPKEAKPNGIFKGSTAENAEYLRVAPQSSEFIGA
6. A431 cell lysate (Screening Lab, SUGEN, Inc.)
1. Coat Corning 96 well ELISA plates with 0.5 μg […] in
100 μl PBS per well, store overnight at 4° C.
2. Remove unbound SUMO1 from wells by inverting plate to remove liquid. Wash 1× with dH2O. Pat the plate on a paper towel to remove excess liquid.
3. Add 150 μl of Blocking Buffer to each well. Incubate for 30 min. at room temperature with shaking.
4. Wash plate 3× with deionized water, then once with TBST. Pat plate on a paper towel to remove excess liquid and bubbles.
5. Dilute lysate in PBS (7 μg lysate/100 μl PBS).
6. Add 100 μl of diluted lysate to each well. Shake at room temperature for 60 min.
7. Wash plates as described in 4, above.
8. Add 120 μl TBS to ELISA plate containing captured EGFR.
9. Dilute test compound 1:10 in TBS in 96-well polypropylene plates (ie. 10 μl compound+90 μl TBS).
10. Add 13.5 μl diluted test compound to ELISA plate.
11. Incubate for 30 minutes while shaking at room temperature.
13. After 5 minutes, stop reaction by adding 16.5 μl of 200 mM EDTA (pH 8.0) to each well, shaking continuously. After the EDTA has been added, shake for 1 min.
14. Wash 4× with deionized water, twice with TBST.
15. Add 100 μl anti-phosphotyrosine (1:3000 dilution.in TBST) per well. Incubate 30-45 min. at room temperature, with shaking.
16. Wash as described in 4, above.
17. Add 100 μl Biosource Goat anti-rabbit IgG peroxidase conjugate (1:2000 dilution in TBST) to each well. Incubate 30 min. at room temperature, with shaking.
18. Wash as described in 4, above.
19. Add 100 μl of ABTS/H2O2 solution to each well.
20. Incubate 5 to 10 minutes with shaking. Remove any bubbles.
21. If necessary stop reaction with the addition of 100 μl 0.2 M HCl per well.
22. Read assay on Dynatech MR7000 ELISA reader. Test Filter: 410 nM Reference Filter: 630 nM

Where [5] appears, read: 50% inhibition of target PTK activity, read-out: Pyk2 IC50.

A word on the IC50: it is the midpoint of a concentration-inhibition curve. As to `COc1ccc2c(c1)CC/C2=C1/C(=O)Nc2ccccc21` [Compound 3, 3-(5-Methoxyindan-1-ylidene)-1,3-dihydroindol-2-one], the “cell IGF, outcome of primary assay” value in assay [1] was “DNH”. In addition, in assay [2] (concentration not given), the “Pyk2 % Inh” value was 56%. For the same compound, in assay [2], the “Pyk2, outcome of primary assay” value is “DNH”. Also, the “bio SRC, outcome of primary assay” value in assay [3] was “DNH”. Moreover, the IC50 in assay [4] was > 100 µM.
For `CC1C/C(=C2/C(=O)Nc3ccccc32)c2ccccc21` (stereo not drawn) [Compound 1, 3-(3-methylindan-1-ylidene)-1,3-dihydroindol-2-one], in assay [1], the “cell IGF, outcome of primary assay” value was “DNH”. The IC50 in assay [2] (setting [5]) and in assay [4] was > 100 µM throughout. Also, the “bio SRC, outcome of primary assay” value in assay [3] is given as “DNH”.
As for `O=C1Nc2ccccc2/C1=C1\CCc2cc(Cl)ccc21` [Compound 7, 3-(5-Chloroindan-1-ylidene)-1,3-dihydroindol-2-one], in assay [1], the “cell IGF, outcome of primary assay” value is listed as “DNH”. Moreover, the “Pyk2, outcome of primary assay” value in assay [2] is “DNH”. In addition, the IC50 in assay [3] and in assay [4] was > 100 µM throughout.
`CN(C)c1ccc2c(c1)CC/C2=C1/C(=O)Nc2ccccc21` [Compound 5, 3-(5-Dimethylaminoindan-1-ylidene)-1,3-dihydroindol-2-one]: the “cell IGF, outcome of primary assay” value in assay [1] is “DNH”. Also, the IC50 was 79.3 µM in assay [2] (setting [5]), > 100 µM in assay [3] and > 100 µM in assay [4].
Turning to `COc1ccc2c(c1)C(CC(=O)[O-])CC2=C1C(=O)Nc2ccccc21.[Na+]` (stereo not drawn) [Compound 13, [6-Methoxy-3-(2-oxo-1,2-dihydroindol-3-ylidene)-indan-1-yl]acetic Acid Sodium Salt], the IC50 in assay [1] is > 100 µM; in assay [2], 4.5 µM; in assay [4], > 100 µM.
With `O=C1Nc2ccccc2/C1=C1\CCc2cc(Br)ccc21` [Compound 9, 3-(5-Bromoindan-1-ylidene)-1,3-dihydroindol-2-one], the “cell IGF, outcome of primary assay” value in assay [1] was “DNH”. The IC50 in assay [4] is > 100 µM.
With `Cc1cccc2c1CC/C2=C1/C(=O)Nc2ccccc21` [Compound 2, 3-(4-Methylindan-1-ylidene)-1,3-dihydroindol-2-one], in assay [1], the “cell IGF, outcome of primary assay” value is “DNH”. In addition, the “Pyk2, outcome of primary assay” value in assay [2] was “DNH”. For the same compound, the “bio SRC, outcome of primary assay” value in assay [3] was “DNH”. The IC50 in assay [4] is > 100 µM.
As to `COc1cc2c(cc1OC)/C(=C1\C(=O)Nc3ccccc31)CC2` [Compound 12, 3-(5,6-Dimethoxyindan-1-ylidene)-1,3-dihydroindol-2-one], the IC50 in assay [1], in assay [3] and in assay [4] was > 25 µM in each case. In assay [2], the “Pyk2, outcome of primary assay” value is listed as “DNH”.
Turning to `COc1ccc2c(c1)C(CC(=O)O)C/C2=C1/C(=O)Nc2ccccc21` (stereo not drawn) [Compound 11, [6-Methoxy-3-(2-oxo-1,2-dihydroindol-3-ylidene)-indan-1-yl]acetic Acid], the IC50 was > 100 µM in assay [1], 9.3 µM in assay [2] (setting [5]) and > 100 µM in assay [4].
Take `O=C1Nc2ccccc2/C1=C1\CCc2ccccc21` [Compound 10, 3-Indan-1-ylidene-1,3-dihydroindol-2-one]: the IC50 in assay [1], in assay [3] and in assay [4] was > 100 µM in each case.
For `O=C1Nc2ccccc2/C1=C1\CCc2cc(N3CCCCC3)ccc21` [Compound 8, 3-(5-Piperidin-1-yl-indan-1-ylidene)-1,3-dihydroindol-2-one], the “cell IGF, outcome of primary assay” value in assay [1] is “DNH”. Besides, in assay [2], the “Pyk2, outcome of primary assay” value is “DNH”. Further, in assay [4], the IC50 was > 100 µM.
